“And” between values parts separate entries of the source, which are not always exact repeats. Equal values may be shown once. Inconclusive results are not listed.
Test system: CD8F1 mice, subcutaneous mammary adenocarcinoma, T/C%
Assay: NCI In Vivo Anticancer Drug Screen. Data for tumor model Mammary Adenocarcinoma CD8F1 (subcutaneous) in CD8F1
Details: higher = larger tumour
Outline: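 Ratio of treated to vehicle-control outcome, based on either survival or tumor size, in mice bearing transplantable tumors given the test compound.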

[1] = endpoint: median tumor weight change, dose: 112.5 mg/kg/injection, schedule: Q01DX001 (ip), vehicle: saline with Tween-80
[2] = endpoint: median tumor weight change, dose: 225.0 mg/kg/injection, schedule: Q01DX001 (ip), vehicle: saline with Tween-80
[3] = endpoint: median tumor weight change, dose: 450.0 mg/kg/injection, schedule: Q01DX001 (ip), vehicle: saline with Tween-80
[4] = endpoint: median tumor weight change, dose: 62.5 mg/kg/injection, schedule: Q01DX001 (ip), vehicle: saline with Tween-80
[5] = endpoint: median tumor weight change, dose: 125.0 mg/kg/injection, schedule: Q01DX001 (ip), vehicle: saline with Tween-80
[6] = endpoint: median tumor weight change, dose: 250.0 mg/kg/injection, schedule: Q01DX001 (ip), vehicle: saline with Tween-80
[7] = endpoint: median tumor weight (est.), dose: 25.0 mg/kg/injection, schedule: Q07DX005 (ip), vehicle: Klucel (hydroxypropylcellulose) (HPC)
[8] = endpoint: median tumor weight (est.), dose: 50.0 mg/kg/injection, schedule: Q07DX005 (ip), vehicle: Klucel (hydroxypropylcellulose) (HPC)
[9] = endpoint: median tumor weight (est.), dose: 100.0 mg/kg/injection, schedule: Q07DX005 (ip), vehicle: Klucel (hydroxypropylcellulose) (HPC)
[10] = endpoint: median tumor weight (est.), dose: 200.0 mg/kg/injection, schedule: Q07DX005 (ip), vehicle: Klucel (hydroxypropylcellulose) (HPC)

COc1cccc(C2NC(=O)c3c(n[nH]c3N)S2)c1O (stereo not drawn)
T/C [1]: 71 % of control
T/C [2]: 91 % of control
T/C [3]: 92 % of control
T/C (endpoint: median tumor weight change, dose: 900.0 mg/kg/injection, schedule: Q01DX001 (ip), vehicle: saline with Tween-80): 76 % of control
T/C (endpoint: median tumor weight change, dose: 1800.0 mg/kg/injection, schedule: Q01DX001 (ip), vehicle: saline with Tween-80): 79 % of control

O=S(=O)(CCl)OCCCl
T/C [4]: 56 % of control
T/C [5]: 60 % of control
T/C [6]: 69 % of control

C[C@H](N)C(=O)N[C@@H]1[C@H]2C(=C(O)C[C@@H](O)[C@@H]2O)C(=O)O[C@@H]1C
T/C (endpoint: median tumor weight change, dose: 125.0 mg/kg/injection, schedule: Q01DX001 (ip), vehicle: saline): 101 % of control
T/C (endpoint: median tumor weight change, dose: 250.0 mg/kg/injection, schedule: Q01DX001 (ip), vehicle: saline): 120 % of control
T/C (endpoint: median tumor weight change, dose: 1000.0 mg/kg/injection, schedule: Q01DX001 (ip), vehicle: saline): 57 % of control
T/C (endpoint: median tumor weight change, dose: 2000.0 mg/kg/injection, schedule: Q01DX001 (ip), vehicle: saline): 86 % of control

CN(C)/N=N/c1nc[nH]c1C(N)=O
T/C (endpoint: median tumor weight (est.), dose: 25.0 mg/kg/injection, schedule: Q07DX004 (ip), vehicle: saline): 102 % of control
T/C [7]: 118 % of control
T/C (endpoint: median tumor weight (est.), dose: 50.0 mg/kg/injection, schedule: Q07DX004 (ip), vehicle: saline): 111 % of control
T/C [8]: 81 % of control
T/C (endpoint: median tumor weight (est.), dose: 100.0 mg/kg/injection, schedule: Q07DX004 (ip), vehicle: saline): 90 % of control
T/C [9]: 46 % of control
T/C (endpoint: median tumor weight (est.), dose: 200.0 mg/kg/injection, schedule: Q07DX004 (ip), vehicle: saline): 62 % of control
T/C [10]: 26 % of control
T/C (endpoint: median tumor weight (est.), dose: 400.0 mg/kg/injection, schedule: Q07DX004 (ip), vehicle: saline): 13 % of control
T/C (endpoint: median tumor weight (est.), dose: 400.0 mg/kg/injection, schedule: Q07DX005 (ip), vehicle: Klucel (hydroxypropylcellulose) (HPC)): 16 % of control

Brc1ccc(C[N+]23CN4CN(CN(C4)C2)C3)cc1
T/C (endpoint: median tumor weight (est.), dose: 25.0 mg/kg/injection, schedule: Q07DX005 (ip), vehicle: saline with Tween-80): 90 % of control
T/C (endpoint: median tumor weight (est.), dose: 50.0 mg/kg/injection, schedule: Q07DX005 (ip), vehicle: saline with Tween-80): 96 % of control
T/C (endpoint: median tumor weight (est.), dose: 100.0 mg/kg/injection, schedule: Q07DX005 (ip), vehicle: saline with Tween-80): 180 % of control

O=C(Nc1ccccc1C(=O)O)c1cc([N+](=O)[O-])cc([N+](=O)[O-])c1
T/C [5]: 192 % of control
T/C [6]: 117 % of control

OC1CCCC2CCC[N-]C12.OC1CCCC2CCC[N-]C12.[Mn+2] (stereo not drawn)
T/C (endpoint: median tumor weight (est.), dose: 12.5 mg/kg/injection, schedule: Q07DX005 (ip), vehicle: Klucel (hydroxypropylcellulose) (HPC)): 83 % of control
T/C [7]: 94 % of control
T/C [8]: 81 % of control
T/C [9]: 67 % of control
T/C [10]: 43 % of control

CCN(CC)CCNc1ccc(CO)c2sc3ccccc3c(=O)c12
T/C (endpoint: median tumor weight (est.), dose: 6.25 mg/kg/injection, schedule: Q07DX005 (ip), vehicle: water): 62 % of control
T/C (endpoint: median tumor weight (est.), dose: 12.5 mg/kg/injection, schedule: Q07DX005 (ip), vehicle: clinical formulation): 120 % of control
T/C (endpoint: median tumor weight (est.), dose: 12.5 mg/kg/injection, schedule: Q07DX005 (ip), vehicle: water): 67 % of control
T/C (endpoint: median tumor weight (est.), dose: 25.0 mg/kg/injection, schedule: Q07DX005 (ip), vehicle: clinical formulation): 82 % of control
T/C (endpoint: median tumor weight (est.), dose: 25.0 mg/kg/injection, schedule: Q07DX005 (ip), vehicle: water): 51 % of control
T/C (endpoint: median tumor weight (est.), dose: 50.0 mg/kg/injection, schedule: Q07DX005 (ip), vehicle: clinical formulation): 53 % of control
T/C (endpoint: median tumor weight (est.), dose: 50.0 mg/kg/injection, schedule: Q07DX005 (ip), vehicle: water): 39 % of control
T/C (endpoint: median tumor weight (est.), dose: 100.0 mg/kg/injection, schedule: Q07DX005 (ip), vehicle: clinical formulation): 17 % of control
T/C (endpoint: median tumor weight (est.), dose: 100.0 mg/kg/injection, schedule: Q07DX005 (ip), vehicle: water): 3 % of control

CCCCCc1cc(/C=C2/N=C(c3ccc[nH]3)C=C2OC)[nH]c1C
T/C (endpoint: median tumor weight (est.), dose: 0.5 mg/kg/injection, schedule: Q07DX005 (ip), vehicle: suspension in saline): 169 % of control
T/C (endpoint: median tumor weight (est.), dose: 1.0 mg/kg/injection, schedule: Q07DX005 (ip), vehicle: suspension in saline): 85 % of control
T/C (endpoint: median tumor weight (est.), dose: 4.0 mg/kg/injection, schedule: Q07DX005 (ip), vehicle: suspension in saline): 82 % of control
T/C (endpoint: median tumor weight (est.), dose: 8.0 mg/kg/injection, schedule: Q07DX005 (ip), vehicle: suspension in saline): 95 % of control

CC1(C)N=C(N)N=C(N)N1c1ccc(CCCCc2ccc(S(=O)(=O)F)cc2Cl)c(Cl)c1
T/C (endpoint: median tumor weight (est.), dose: 12.5 mg/kg/injection, schedule: Q07DX005 (ip), vehicle: other): 95 % of control
T/C (endpoint: median tumor weight (est.), dose: 12.5 mg/kg/injection, schedule: Q07DX005 (ip), vehicle: saline): 42 % of control
T/C (endpoint: median tumor weight (est.), dose: 12.5 mg/kg/injection, schedule: Q07DX005 (ip), vehicle: suspension in saline): 114 % of control
T/C (endpoint: median tumor weight (est.), dose: 25.0 mg/kg/injection, schedule: Q07DX005 (ip), vehicle: saline): 60 % of control
T/C (endpoint: median tumor weight (est.), dose: 25.0 mg/kg/injection, schedule: Q07DX005 (ip), vehicle: suspension in saline): 105 % of control
T/C (endpoint: median tumor weight (est.), dose: 50.0 mg/kg/injection, schedule: Q07DX005 (ip), vehicle: saline): 39 % of control
T/C (endpoint: median tumor weight (est.), dose: 50.0 mg/kg/injection, schedule: Q07DX005 (ip), vehicle: suspension in saline): 46 % of control
T/C (endpoint: median tumor weight (est.), dose: 100.0 mg/kg/injection, schedule: Q07DX005 (ip), vehicle: saline): 20 % of control
T/C (endpoint: median tumor weight (est.), dose: 100.0 mg/kg/injection, schedule: Q07DX005 (ip), vehicle: suspension in saline): 26 % of control
T/C (endpoint: median tumor weight (est.), dose: 200.0 mg/kg/injection, schedule: Q07DX005 (ip), vehicle: saline): 5 % of control
T/C (endpoint: median tumor weight (est.), dose: 200.0 mg/kg/injection, schedule: Q07DX005 (ip), vehicle: suspension in saline): 2 % of control
T/C (endpoint: median tumor weight change, dose: 90.0 mg/kg/injection, schedule: Q01DX001 (ip), vehicle: saline with Tween-80): 50 % of control
T/C (endpoint: median tumor weight change, dose: 100.0 mg/kg/injection, schedule: Q01DX001 (ip), vehicle: saline with Tween-80): 53 % of control
T/C [1]: 84 % of control
T/C (endpoint: median tumor weight change, dose: 133.0 mg/kg/injection, schedule: Q01DX001 (ip), vehicle: saline with Tween-80): 64 % of control
T/C (endpoint: median tumor weight change, dose: 200.0 mg/kg/injection, schedule: Q01DX001 (ip), vehicle: saline with Tween-80): 12 % of control and 25 % of control
T/C [2]: 49 % of control
T/C (endpoint: median tumor weight change, dose: 300.0 mg/kg/injection, schedule: Q01DX001 (ip), vehicle: saline with Tween-80): 27 % of control
T/C [3]: 12 % of control

O=C1c2cccc3cc([N+](=O)[O-])cc(c23)C(=O)N1CCN1CCCC1
T/C (endpoint: median tumor weight change, dose: 7.0 mg/kg/injection, schedule: Q01DX001 (ip), vehicle: saline with Tween-80): 117 % of control
T/C (endpoint: median tumor weight change, dose: 14.06 mg/kg/injection, schedule: Q01DX001 (ip), vehicle: saline with Tween-80): 69 % of control
T/C (endpoint: median tumor weight change, dose: 28.12 mg/kg/injection, schedule: Q01DX001 (ip), vehicle: saline with Tween-80): 118 % of control
T/C (endpoint: median tumor weight change, dose: 31.25 mg/kg/injection, schedule: Q01DX001 (ip), vehicle: saline with Tween-80): 63 % of control
T/C (endpoint: median tumor weight change, dose: 56.25 mg/kg/injection, schedule: Q01DX001 (ip), vehicle: saline with Tween-80): 81 % of control
T/C [4]: 20 % of control
T/C [1]: 18 % of control

Cn1/c2cc/c1=C(\c1ccc(S(=O)(=O)O)cc1)c1ccc([n-]1)/C(c1ccc(S(=O)(=O)O)cc1)=c1/cc/c([nH]1)=C(\c1ccc(S(=O)(=O)O)cc1)c1ccc([n-]1)/C=2c1ccc(S(=O)(=O)O)cc1.O.O=S(=O)(O)C(F)(F)F.[Cu+2]
T/C (endpoint: median tumor weight change, dose: 62.5 mg/kg/injection, schedule: Q01DX001 (ip), vehicle: saline): 124 % of control

N[C@H](C(=O)O)[C@@H]1CC(Cl)=NO1
T/C (endpoint: median tumor weight (est.), dose: 1.0 mg/kg/injection, schedule: Q07DX005 (ip), vehicle: saline): 167 % of control
T/C (endpoint: median tumor weight (est.), dose: 2.0 mg/kg/injection, schedule: Q07DX005 (ip), vehicle: saline): 92 % of control and 100 % of control and 101 % of control
T/C (endpoint: median tumor weight (est.), dose: 128.0 mg/kg/injection, schedule: Q07DX005 (ip), vehicle: saline): 13 % of control

NC(=O)/C=C/c1c[nH]c2nccnc12
T/C (endpoint: median tumor weight change, dose: 31.25 mg/kg/injection, schedule: Q01DX001 (ip), vehicle: water): 124 % of control
T/C (endpoint: median tumor weight change, dose: 62.5 mg/kg/injection, schedule: Q01DX001 (ip), vehicle: water): 73 % of control
T/C (endpoint: median tumor weight change, dose: 125.0 mg/kg/injection, schedule: Q01DX001 (ip), vehicle: water): 58 % of control

Reference: PubChem BioAssay AID220 (DTP/NCI, 2004)
